Converted amounts (≈) assume the structure as drawn.
Key:
Toxoplasma gondii = assay: Antiparasitic activity against Toxoplasma gondii tachyzoites infected in human HeLa cells; assay type: functional, organism-based
Trypanosoma cruzi = assay: Antitrypanosomal activity against Trypanosoma cruzi trypomastigotes assessed as parasite growth inhibition; assay type: functional, organism-based
[1] = Binding affinity to PDE4 (unknown origin) expressed in Escherichia coli using cAMP as substrate assessed as inhibition constant by fluorescence polarization assay; design: species or system Homo sapiens
[2] = Inhibition of human recombinant catalytic domain PDE4 (152 to 484 residues) by fluorescence polarization assay
Autotaxin = Autotaxin (Homo sapiens, UniProt Q13822); assay: Inhibition of ATX (unknown origin)

Work on `O=C(O)CCc1cccc2c1B(O)OC2` yielded an IC50 (Toxoplasma gondii) of 900 nM.
`COc1cc(C(=O)/C=C/c2ccc3c(c2)B(O)OC3)ccc1N` showed an IC50 (Trypanosoma cruzi) of 0.01 µg/mL (≈ 0.0323 µM).
`N#Cc1ccc(Oc2ccc3c(c2)COB3O)cc1C#N` gave a Ki [1] of 65 nM.
For `CC(=O)CCCOc1cc(C#N)c(Cl)nc1Oc1ccc2c(c1)COB2O`, the IC50 [2] was 0.32 nM.
Compound `CC(C)OCCOc1cc(C#N)cnc1Oc1ccc2c(c1)COB2O` has an IC50 [2] of 3 nM.
`O=C(OCc1cc(Cl)cc(Cl)c1)N1CCN(C2CN(C(=O)c3ccc4c(c3)COB4O)C2)CC1` showed an IC50 (Autotaxin) of 130 nM.
With `O=C1N=C(N2CCN(Cc3ccc(B(O)O)cc3)CC2)S/C1=C/c1ccc(Cl)c(Cl)c1` the IC50 (Autotaxin) was 13 nM.
With `N#Cc1ccc(Oc2ccc3c(c2)COB3O)cc1` [CRISABOROLE] the Ki [1] was 173 nM.

Source: ChEMBL document CHEMBL5634093, “Elemental exchange: Bioisosteric replacement of phosphorus by boron in drug design” (Eur J Med Chem, 2023)
